Here are results for 5 compounds from PMC4251066, “Polyyne Hybrid Compounds from Notopterygium incisum with Peroxisome Proliferator-Activated Receptor Gamma Agonistic Effects” (Journal of Natural Products, 2014).

Structures are written as SMILES.

One data set addresses T1, human PPARγ (Homo sapiens, UniProt P37231).
T1 sequence (P37231 1-477 isoform P37231-2): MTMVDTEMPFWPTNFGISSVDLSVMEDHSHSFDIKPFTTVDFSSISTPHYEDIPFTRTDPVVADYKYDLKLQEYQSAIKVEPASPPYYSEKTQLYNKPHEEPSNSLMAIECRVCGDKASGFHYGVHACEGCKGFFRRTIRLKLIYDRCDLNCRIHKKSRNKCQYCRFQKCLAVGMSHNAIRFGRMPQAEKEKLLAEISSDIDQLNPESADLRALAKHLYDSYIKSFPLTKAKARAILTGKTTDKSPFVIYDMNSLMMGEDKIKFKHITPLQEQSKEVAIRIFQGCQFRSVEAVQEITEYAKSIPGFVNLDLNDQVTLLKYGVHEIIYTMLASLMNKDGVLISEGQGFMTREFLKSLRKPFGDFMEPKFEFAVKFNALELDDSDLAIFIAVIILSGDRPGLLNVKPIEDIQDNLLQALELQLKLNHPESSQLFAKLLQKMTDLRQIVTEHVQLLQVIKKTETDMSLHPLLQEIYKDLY
In words: PPARγ luciferase reporter gene transactivation in HEK-293 cells. The note with it: PPARγ-driven luciferase reporter assay, 18 h.

Data set [1] concerns NO production in LPS/IFNγ-stimulated RAW 264.7 macrophages. Put plainly: Inhibition of NO production in stimulated RAW 264.7 macrophages (Griess assay). The data set is classed as cell-based. Particulars: Mus musculus, RAW264.7, 16 h incubation. How it is done:
RAW 264.7 macrophages were stimulated with lipopolysaccharides (LPS) and interferon-γ (IFNγ) for induction of iNOS gene expression. The effects on NO production were determined by photometric quantification of nitrite accumulation in cell culture supernatants using the Griess assay compared with a sodium nitrite standard curve after 16 h of incubation with the respective sample as described by Baer et al. with slight modifications.[29],[30] Activity is referred to nitrite accumulation of cells treated with LPS/IFN-γ/DMSO (final concentration of 0.1% DMSO serves as solvent control). Test compounds were first dissolved in DMSO and then diluted with PBS to obtain respective concentrations. L-NMMA (N-monomethyl-L-arginine), a known nonselective inhibitor of all NOS isoforms, was used as a positive control. IC50 determination was performed in eight concentrations, each in at least three independent experiments, every time in duplicate.
IC50 values for effects on NO production were calculated with the SigmaPlot program package employing the four-parameter logistic regression model. Statistical differences were evaluated using one-way ANOVA. Differences with a p value < 0.05 were considered significant.

Data set [2] in a line: Stability on exposure to heat or sunlight (observed color change). The data set is classed as physicochemical. Particulars: elevated temperatures (45 °C) or direct sunlight at ambient temperature for an extended time; visible color change.

Method for human PPARγ: For evaluation of PPARγ activation the test compounds were first dissolved in DMSO, divided into aliquots, and frozen at −20 °C until used. In all experiments, DMSO was applied as solvent control, and the final concentration of DMSO was always kept at ≤0.1%. The PPAR luciferase reporter plasmid (tk-PPREx3-luc) was a kind gift from Prof. Ronald M. Evans (Howard Hughes Medical Institute, La Jolla, CA, USA), the plasmid encoding enhanced green fluorescent protein (pEGFP-N1) was supplied by Clontech (Mountain View, CA, USA), and the plasmid encoding human PPARγ (pSG5-PL-hPPAR-γ1) was kindly supplied by Prof. Walter Wahli and Prof. Beatrice Desvergne (Center for Integrative Genomics, University of Lausanne, Switzerland).
The PPARγ luciferase reporter gene assay was performed as previously described.[27] Briefly, HEK-293 cells (ATCC, Manassas, VA, USA) were grown in DMEM with 2 mM glutamine, 10% FBS, 100 U/mL benzylpenicillin, and 100 μg/mL streptomycin. Cells were grown in 10 cm dishes (6 × 10^6 cells/dish) for 18 h and then transfected by the calcium phosphate precipitation method with 4 μg of plasmid encoding human PPARγ (pSG5-PL-hPPAR-γ1), 4 μg of reporter plasmid (tk-PPREx3-luc), and 2 μg of pEGFP-N1 as control for internal normalization.[28] After 6 h, the cells were transferred to 96-well plates (5 × 10^4 cells/well) in DMEM without phenol red supplemented with charcoal-stripped FBS, glutamine, and antibiotics. The cells were treated with different concentrations of the indicated compounds and incubated for 18 h. Cells were then lysed, and the luminescence of the firefly luciferase and the fluorescence of EGFP were quantified with a GeniosPro microplate reader (Tecan, Grödig, Austria). The luminescence was finally normalized to the EGFP-derived fluorescence from each well to account for differences in transfection efficiency or cell number.
Nonlinear regression (with sigmoidal dose response) was used to calculate the EC50 values and maximal fold activation.

On human PPARγ, `C=C[C@H]1OCc2cc3cc(OC)c(O)cc3c(C#C[C@@H](O)/C=C\CCCCCCC)c21` [compound 10, Notoincisol B] gave an EC50 of 1700 nM and a maximal fold activation of 2.3.

Consider `C=C[C@H](C#CC#C[C@@H](O)/C=C\CCCCCCC)O[C@]1(C)CC[C@@H](O)[C@]2(C)CC[C@@H](C(C)C)[C@@H](O)[C@H]21` [compound 3, Notoether C], for which, at human PPARγ, the midpoint of the response, the EC50, lay at 2000 nM and the maximal fold activation was 1.6.

On human PPARγ, `C=C[C@@H](O)C#CC#C[C@H](/C=C\CCCCCCC)OC(=O)/C=C/c1ccc(O)c(OC)c1` [compound 9, Notoincisol A] gave an EC50 of 2300 nM. The compound also gave a concentration for half-maximal inhibition (IC50) in data set [1] of 14.6 ± 0.7 µM. The stability entry in data set [2] is “unstable”.

With `C=C[C@@H](O)C#CC#C[C@H](/C=C\CCCCCCC)O[C@]1(C)CCC[C@]2(C)CC[C@@H](C(C)(C)O)C[C@H]21` [compound 2, Notoether B], on human PPARγ, the midpoint of the response, the EC50, lay at 1700 nM and the maximal fold activation worked out at 2.0.

On human PPARγ, `C=C[C@H](C#CC#C[C@@H](O)/C=C\CCCCCCC)O[C@]1(C)CCC[C@]2(C)CC[C@@H](C(C)(C)O)C[C@H]21` [compound 1, Notoether A] came in with a concentration giving a half-maximal response (EC50) of 1900 nM and a maximal fold activation of 1.6.
